Measured values taken from ChEMBL document CHEMBL1157132, “Hydrolyzable tannins of tamaricaceous plants. III. Hellinoyl- and macrocyclic-type ellagitannins from Tamarix nilotica” (J Nat Prod, 2010).

Legend:
[1] = Cytotoxicity against human HGF cells after 48 hrs by MTT assay; format: cell-based
[2] = system: HSC-4; test: Cytotoxicity against human HSC4 cells after 48 hrs by MTT assay; format: functional; details: HSC-4, 48 h
[3] = Cytotoxicity against human HPC cells after 48 hrs by MTT assay; format: cell-based
[4] = Cytotoxicity against human HPLF cells after 48 hrs by MTT assay; format: cell-based
[5] = system: HL-60; test: Cytotoxicity against human HL60 cells after 48 hrs by MTT assay; format: functional; details: HL-60, 48 h
[6] = system: HSC-3; test: Cytotoxicity against human HSC3 cells after 48 hrs by MTT assay; format: functional; details: HSC-3, 48 h
[7] = system: HSC-2; test: Cytotoxicity against human HSC2 cells after 48 hrs by MTT assay; format: functional; details: HSC-2, 48 h

SMILES: O=C1O[C@@H]2O[C@@H]3COC(=O)c4cc(O)c(O)c(O)c4-c4c(cc(O)c(O)c4O)C(=O)O[C@H]3[C@H](OC(=O)c3cc(O)c(O)c(O)c3)[C@H]2OC(=O)c2cc(Oc3c(C(=O)O[C@@H]4[C@@H](OC(=O)c5cc(O)c(O)c(O)c5)[C@@H]5OC(=O)c6cc(O)c(O)c(O)c6-c6c(cc(O)c(O)c6O)C(=O)OC[C@H]5O[C@H]4O)cc(O)c(O)c3O)c(O)c(O)c2Oc2cc1cc(O)c2O [TAMARIXININ A]
- CC50 at 48 h [1]: 274 µM
- CC50 [2]: 59.3 µM
- CC50 at 48 h [3]: 199 µM
- CC50 at 48 h [4]: 353 µM
- CC50 [5]: 30.8 µM
- CC50 [6]: 54.3 µM
- CC50 [7]: 29.3 µM

SMILES: O=C(O)c1cc(O)c(O)c(Oc2c(C(=O)O[C@@H]3[C@@H](OC(=O)c4cc(O)c(O)c(O)c4O)[C@@H]4OC(=O)c5cc(O)c(O)c(O)c5-c5c(cc(O)c(O)c5O)C(=O)OC[C@H]4O[C@H]3O)cc(O)c(O)c2O)c1 [REMURIN B]
- CC50 at 48 h [1]: 337 µM
- CC50 [2]: 60 µM
- CC50 at 48 h [3]: 255 µM
- CC50 at 48 h [4]: 375 µM
- CC50 [5]: 41.7 µM
- CC50 [6]: 63.3 µM
- CC50 [7]: 32.3 µM

SMILES: O=C(O[C@@H]1O[C@@H]2COC(=O)c3cc(O)c(O)c(O)c3-c3c(cc(O)c(O)c3O)C(=O)O[C@H]2[C@H](OC(=O)c2cc(O)c(O)c(O)c2)[C@H]1OC(=O)c1cc(O)c(O)c(O)c1Oc1cc2c(c(O)c1O)Oc1cc(cc(O)c1O)C(=O)O[C@@H]1O[C@H](CO)[C@@H](O)[C@H](OC(=O)c3cc(O)c(O)c(O)c3)[C@H]1OC2=O)c1cc(O)c(O)c(O)c1 [NILOTININ D8]
- CC50 at 48 h [1]: 318 µM
- CC50 [2]: 54.3 µM
- CC50 at 48 h [3]: 278 µM
- CC50 at 48 h [4]: 358 µM
- CC50 [5]: 22.9 µM
- CC50 [6]: 48.3 µM
- CC50 [7]: 32.3 µM

SMILES: O=C(O)c1cc(O)c(O)c(Oc2c(C(=O)O[C@H]3[C@H](OC(=O)c4cc(O)c(O)c(O)c4)O[C@@H]4COC(=O)c5cc(O)c(O)c(O)c5-c5c(cc(O)c(O)c5O)C(=O)O[C@H]4[C@@H]3OC(=O)c3cc(O)c(O)c(O)c3O)cc(O)c(O)c2O)c1 [REMURIN A]
- CC50 at 48 h [1]: 218 µM
- CC50 [2]: 48 µM
- CC50 at 48 h [3]: 170 µM
- CC50 at 48 h [4]: 373 µM
- CC50 [5]: 18.4 µM
- CC50 [6]: 51 µM
- CC50 [7]: 31.3 µM

SMILES: O=C1O[C@@H]2O[C@@H]3COC(=O)c4cc(O)c(O)c(O)c4-c4c(cc(O)c(O)c4O)C(=O)O[C@H]3[C@H](OC(=O)c3cc(O)c(O)c(O)c3)[C@H]2OC(=O)c2cc(Oc3c(C(=O)O)cc(O)c(O)c3O)c(O)c(O)c2Oc2cc1cc(O)c2O [NILOTININ M4]
- CC50 at 48 h [1]: 325 µM
- CC50 [2]: 62 µM
- CC50 at 48 h [3]: 263 µM
- CC50 at 48 h [4]: 361 µM
- CC50 [5]: 30.6 µM
- CC50 [6]: 57 µM
- CC50 [7]: 35 µM

SMILES: O=C(O[C@@H]1O[C@@H]2COC(=O)c3cc(O)c(O)c(O)c3-c3c(cc(O)c(O)c3O)C(=O)O[C@H]2[C@H](OC(=O)c2cc(O)c(O)c(O)c2)[C@H]1OC(=O)c1cc(O)c(O)c(O)c1Oc1cc2c(c(O)c1O)Oc1cc(cc(O)c1O)C(=O)O[C@@H]1O[C@@H]3COC(=O)c4cc(O)c(O)c(O)c4-c4c(cc(O)c(O)c4O)C(=O)O[C@H]3[C@H](OC(=O)c3cc(O)c(O)c(O)c3)[C@H]1OC2=O)c1cc(O)c(O)c(O)c1 [HIRTELLIN B]
- CC50 at 48 h [1]: 177 µM
- CC50 [2]: 74 µM
- CC50 at 48 h [3]: 78.5 µM
- CC50 at 48 h [4]: 293 µM
- CC50 [5]: 8.71 µM
- CC50 [6]: 99.3 µM
- CC50 [7]: 91.7 µM
